Laboratory results as given in US20080234262A1 (Wyeth, priority 2007, published 2008).

Tests used:
[1] = tested on: prostate line LNCap; test: In vitro cell culture growth assay (MTS), LNCap; format: cell-based, human; conditions: LNCap cells, three days after drug treatment;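 also: viable cell density read by absorbance at 490 nm, growth expressed as percent of vehicle-treated cells on the same plate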
[2] = biological target: PI3K (Homo sapiens, UniProt P42336); test: Fluorescence polarization assay for PI3K; format: biochemical; conditions: PI3Kα; read-out: PI3Kα IC50;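 also: PI3K kinase reaction on PIP2 with ATP, 30-60 min, product sensed by GST-GRP with red probe in fluorescence polarization (mP), controls without enzyme and at zero time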
[3] = tested on: breast line MDA468; test: In vitro cell culture growth assay (MTS), MDA468; format: cell-based, human; conditions: MDA468 cells, three days after drug treatment
In short: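 Three-day drug treatment starting 1 day post-plating; viable cells quantified via MTS metabolism (A490); effect normalised to in-plate vehicle controls as % growth.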

PI3K, sequence (P42336 whole entry): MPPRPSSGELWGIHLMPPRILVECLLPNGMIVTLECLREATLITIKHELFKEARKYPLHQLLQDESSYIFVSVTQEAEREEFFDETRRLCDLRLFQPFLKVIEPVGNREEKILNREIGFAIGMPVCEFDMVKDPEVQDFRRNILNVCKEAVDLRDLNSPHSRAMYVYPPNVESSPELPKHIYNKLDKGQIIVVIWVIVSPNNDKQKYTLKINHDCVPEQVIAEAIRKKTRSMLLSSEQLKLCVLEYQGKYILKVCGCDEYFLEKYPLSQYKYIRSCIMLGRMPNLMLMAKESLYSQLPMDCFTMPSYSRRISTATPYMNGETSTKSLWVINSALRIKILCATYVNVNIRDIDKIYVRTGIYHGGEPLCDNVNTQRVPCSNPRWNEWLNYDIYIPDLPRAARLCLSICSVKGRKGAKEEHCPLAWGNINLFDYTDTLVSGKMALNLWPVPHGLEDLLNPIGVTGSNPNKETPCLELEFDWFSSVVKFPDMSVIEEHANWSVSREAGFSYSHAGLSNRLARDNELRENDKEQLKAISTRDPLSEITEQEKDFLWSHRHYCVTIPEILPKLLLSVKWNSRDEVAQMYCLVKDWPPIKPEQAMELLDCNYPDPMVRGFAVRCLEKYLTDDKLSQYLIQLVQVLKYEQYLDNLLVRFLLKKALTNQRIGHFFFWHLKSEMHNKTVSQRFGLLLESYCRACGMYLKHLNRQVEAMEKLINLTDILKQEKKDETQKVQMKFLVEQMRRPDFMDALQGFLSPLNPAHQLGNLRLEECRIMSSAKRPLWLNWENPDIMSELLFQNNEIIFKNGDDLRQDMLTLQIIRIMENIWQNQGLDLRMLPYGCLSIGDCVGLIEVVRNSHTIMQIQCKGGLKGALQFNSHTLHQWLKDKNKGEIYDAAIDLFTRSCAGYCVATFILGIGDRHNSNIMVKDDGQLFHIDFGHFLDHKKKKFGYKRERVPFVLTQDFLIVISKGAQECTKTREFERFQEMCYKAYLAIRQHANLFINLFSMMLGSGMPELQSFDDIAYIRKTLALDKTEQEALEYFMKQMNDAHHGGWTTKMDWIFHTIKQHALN
PI3K, sequence (P27986 whole entry partner): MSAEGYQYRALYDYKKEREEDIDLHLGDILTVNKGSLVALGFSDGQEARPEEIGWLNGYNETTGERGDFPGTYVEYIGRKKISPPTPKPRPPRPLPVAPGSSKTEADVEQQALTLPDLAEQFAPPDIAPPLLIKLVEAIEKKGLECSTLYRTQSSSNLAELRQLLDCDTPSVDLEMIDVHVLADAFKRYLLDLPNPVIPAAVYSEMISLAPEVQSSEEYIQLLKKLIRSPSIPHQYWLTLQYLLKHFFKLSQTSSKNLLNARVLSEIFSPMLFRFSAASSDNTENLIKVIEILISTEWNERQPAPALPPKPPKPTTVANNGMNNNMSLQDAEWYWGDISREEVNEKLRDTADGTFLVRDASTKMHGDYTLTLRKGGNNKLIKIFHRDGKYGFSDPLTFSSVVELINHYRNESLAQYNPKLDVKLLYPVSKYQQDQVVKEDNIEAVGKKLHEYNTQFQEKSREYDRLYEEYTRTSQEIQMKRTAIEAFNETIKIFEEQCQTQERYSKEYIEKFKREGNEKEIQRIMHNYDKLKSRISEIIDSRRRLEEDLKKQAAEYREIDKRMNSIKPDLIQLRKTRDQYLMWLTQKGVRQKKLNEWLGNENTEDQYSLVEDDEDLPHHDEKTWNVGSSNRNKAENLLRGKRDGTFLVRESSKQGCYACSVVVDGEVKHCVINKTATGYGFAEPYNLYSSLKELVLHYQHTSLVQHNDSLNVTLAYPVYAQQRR

Row | IC50 ([1]; Homo sapiens, LNCaP, 72 h) [nM] | IC50 [2] [nM] | IC50 [1] [nM] | Structure (SMILES) | IC50 ([3]; Homo sapiens, 72 h) [nM] | IC50 [3] [nM]
1 | 1500 | 134 | – | O=C(CCO)Nc1ccc(-c2nc(N3CCOCC3)c3cnn(-c4ccccc4)c3n2)cc1 [Compound 139] | 60000 | –
2 | 60000 | 699 | – | c1ccc(-n2ncc3c(N4CCOCC4)nc(-c4ccc5occc5c4)nc32)cc1 [Compound 117] | 60000 | –
3 | 2500 | 26 | – | Oc1cccc(-c2nc(N3CCOCC3)c3cn[nH]c3n2)c1 [Example 204, 3-(4-morpholin-4-yl-1H-pyrazolo[3,4-d]pyrimidin-6-yl)phenol] | 8000 | –
4 | 130 | 21 | – | COc1ccc(CN2CCC(n3ncc4c(N5CCOCC5)nc(-c5cccc(O)c5)nc43)CC2)cc1O [Example 20] | 700 | –
5 | 27 | 246 | – | CNC(=O)Nc1ccc(-c2nc(N3CCOCC3)c3cnn(C4CCN(Cc5cccnc5)CC4)c3n2)cc1F [Example 350, 1-(2-fluoro-4-{4-morpholin-4-yl-1-[1-(pyridin-3-ylmethyl)piperidin-4-yl]-1H-pyrazolo[3,4-d]pyrimidin-6-yl}phenyl)-3-methylurea] | 200 | –
6 | 4500 | 7030 | – | O=C(NCCCc1ccccc1)Nc1ccc(-c2nc(N3CCOCC3)c3cnn(C4CCN(Cc5ccccc5)CC4)c3n2)cc1 [Compound 260, 1-{4-[1-(1-benzylpiperidin-4-yl)-4-morpholin-4-yl-1H-pyrazolo[3,4-d]pyrimidin-6-yl]phenyl}-3-(3-phenylpropyl)urea] | 60000 | –
7 | 110 | 87 | – | CNC(=O)Nc1ccc(-c2nc(N3CCOCC3)c3cnn(C4CCN(C(=O)OCC(C)(C)C)CC4)c3n2)cc1 [Compound 876, 2,2-dimethylpropyl 4-(6-{4-[(methylcarbamoyl)amino]phenyl}-4-morpholin-4-yl-1H-pyrazolo[3,4-d]pyrimidin-1-yl)piperidine-1-carboxylate] | 350 | –
8 | 3500 | 2190 | – | CC(C)(C)OC(=O)N1CCC(n2ncc3c(N4CCOCC4)nc(-c4ccc(NC(=O)Nc5ccccn5)cc4)nc32)CC1 [Compound 769, tert-butyl 4-(4-morpholin-4-yl-6-{4-[(pyridin-2-ylcarbamoyl)amino]phenyl}-1H-pyrazolo[3,4-d]pyrimidin-1-yl)piperidine-1-carboxylate] | 7000 | –
9 | 27 | 89 | – | CNC(=O)Nc1ccc(-c2nc(N3CCOCC3)c3cnn(C4CCN(C(=O)c5cccc(F)c5)CC4)c3n2)cc1 [Example 357, 1-(4-{1-[1-(3-fluorobenzoyl)piperidin-4-yl]-4-morpholin-4-yl-1H-pyrazolo[3,4-d]pyrimidin-6-yl}phenyl)-3-methylurea] | 100 | –
10 | 95 | 24 | – | CCCOC(=O)N1CCC(n2ncc3c(N4CCOCC4)nc(-c4ccc(NC(=O)Nc5ccccc5)cc4)nc32)CC1 [Compound 849, propyl 4-(4-morpholin-4-yl-6-{4-[(phenylcarbamoyl)amino]phenyl}-1H-pyrazolo[3,4-d]pyrimidin-1-yl)piperidine-1-carboxylate] | 300 | –
11 | 8000 | 2280 | – | NS(=O)(=O)c1ccc(-c2nc(N3CCOCC3)c3cnn(C4CCN(Cc5ccccc5)CC4)c3n2)cc1 [Compound 85] | 9000 | –
12 | 550 | 509 | – | c1ccc(CN2CCC(n3ncc4c(N5CCOCC5)nc(-c5ccc6[nH]ccc6c5)nc43)CC2)nc1 [Compound 178] | 2100 | –
13 | 30 | 29 | – | CC(C)C(=O)N1CCC(n2ncc3c(N4CCOCC4)nc(-c4ccc(NC(=O)Nc5ccccc5)cc4)nc32)CC1 [Compound 826, 1-{4-[1-(1-isobutyrylpiperidin-4-yl)-4-morpholin-4-yl-1H-pyrazolo[3,4-d]pyrimidin-6-yl]phenyl}-3-phenylurea] | 110 | –
14 | 5000 | 45 | – | CNCCNC(=O)Nc1ccc(-c2nc(N3CCOCC3)c3cnn(C4CCN(C(=O)c5cccnc5)CC4)c3n2)cc1 [Compound 593, 1-[2-(methylamino)ethyl]-3-(4-{4-morpholin-4-yl-1-[1-(pyridin-3-ylcarbonyl)piperidin-4-yl]-1H-pyrazolo[3,4-d]pyrimidin-6-yl}phenyl)urea] | 9000 | –
15 | 220 | 341 | – | CCCNC(=O)Nc1ccc(-c2nc(N3CCOCC3)c3cnn(C4CCN(Cc5ccccc5)CC4)c3n2)cc1 [Example 254, 1-{4-[1-(1-benzylpiperidin-4-yl)-4-morpholin-4-yl-1H-pyrazolo[3,4-d]pyrimidin-6-yl]phenyl}-3-propylurea] | 1500 | –
16 | 2800 | 26 | – | O=C(Nc1ccc(-c2nc(N3CCOCC3)c3cnn(C4CCNCC4)c3n2)cc1)Nc1cccnc1 [Compound 779, 1-[4-(4-morpholin-4-yl-1-piperidin-4-yl-1H-pyrazolo[3,4-d]pyrimidin-6-yl)phenyl]-3-pyridin-3-ylurea] | 900 | –
17 | 700 | 384 | – | O=C(NCC1CC1)Nc1ccc(-c2nc(N3CCOCC3)c3cnn(C4CCN(Cc5ccccc5)CC4)c3n2)cc1 [Compound 508, 1-{4-[1-(1-benzylpiperidin-4-yl)-4-morpholin-4-yl-1H-pyrazolo[3,4-d]pyrimidin-6-yl]phenyl}-3-(cyclopropylmethyl)urea] | 3000 | –
18 | 26000 | 170 | – | O=C(NCCO)Nc1ccc(-c2nc(N3CCOCC3)c3cnn(C4CCNCC4)c3n2)cc1 [Compound 775, 1-(2-hydroxyethyl)-3-[4-(4-morpholin-4-yl-1-piperidin-4-yl-1H-pyrazolo[3,4-d]pyrimidin-6-yl)phenyl]urea] | 12000 | –
19 | – | 82 | 70 | CNC(=O)Nc1ccc(-c2nc(N3CCOCC3)c3cnn(C4CCN(Cc5cnccc5OC)CC4)c3n2)cc1 [Compound 636, 1-[4-(1-{1-[(4-methoxypyridin-3-yl)methyl]piperidin-4-yl}-4-morpholin-4-yl-1H-pyrazolo[3,4-d]pyrimidin-6-yl)phenyl]-3-methylurea] | – | 220
20 | 52 | 35 | – | CNC(=O)Nc1ccc(-c2nc(N3CCOCC3)c3cnn(C4CCN(C(=O)c5ccc(Br)cc5)CC4)c3n2)cc1 [Example 360, 1-(4-{1-[1-(4-bromobenzoyl)piperidin-4-yl]-4-morpholin-4-yl-1H-pyrazolo[3,4-d]pyrimidin-6-yl}phenyl)-3-methylurea] | 200 | –
21 | 15000 | 393 | – | CN(C)c1ccc(-c2nc(N3CCOCC3)c3cnn(-c4ccccc4)c3n2)cc1 [Compound 114] | 27000 | –
22 | 9000 | 128 | – | NCC(=O)Nc1ccc(-c2nc(N3CCOCC3)c3cn[nH]c3n2)cc1 [Compound 282, N-[4-(4-morpholin-4-yl-1H-pyrazolo[3,4-d]pyrimidin-6-yl)phenyl]glycinamide] | 11000 | –
23 | 110 | 153 | – | CNC(=O)Nc1ccc(-c2nc(N3CCOCC3)c3cnn(C4CCN(Cc5cncc(F)c5)CC4)c3n2)cc1 [Example 392, 1-[4-(1-{1-[(5-fluoropyridin-3-yl)methyl]piperidin-4-yl}-4-morpholin-4-yl-1H-pyrazolo[3,4-d]pyrimidin-6-yl)phenyl]-3-methylurea] | 600 | –
24 | 800 | 2150 | – | CCCOC(=O)N1CCC(n2ncc3c(N4CCOCC4)nc(-c4ccc(NC(=O)NCC5CC5)cc4)nc32)CC1 [Compound 858, propyl 4-[6-(4-{[(cyclopropylmethyl)carbamoyl]amino}phenyl)-4-morpholin-4-yl-1H-pyrazolo[3,4-d]pyrimidin-1-yl]piperidine-1-carboxylate] | 3200 | –
25 | 3000 | 890 | – | CC(C)(C)OC(=O)N1CCC[C@@H](n2ncc3c(N4CCOCC4)nc(-c4ccc5[nH]ccc5c4)nc32)C1 [Compound 167] | 3100 | –
26 | < 27 | 93 | – | CNC(=O)Nc1ccc(-c2nc(N3CCOCC3)c3cnn(C4CCN(C(=O)c5ccccc5C)CC4)c3n2)cc1 [Compound 602, 1-methyl-3-(4-{1-[1-(2-methylbenzoyl)piperidin-4-yl]-4-morpholin-4-yl-1H-pyrazolo[3,4-d]pyrimidin-6-yl}phenyl)urea] | 70 | –
27 | < 27 | 60 | – | CCOC(=O)N1CCC(n2ncc3c(N4CCOCC4)nc(-c4ccc(NC(=O)Nc5cccnc5)cc4)nc32)CC1 [Compound 816, ethyl 4-(4-morpholin-4-yl-6-{4-[(pyridin-3-ylcarbamoyl)amino]phenyl}-1H-pyrazolo[3,4-d]pyrimidin-1-yl)piperidine-1-carboxylate] | < 27 | –
28 | – | 230 | 320 | CNC(=O)Nc1ccc(-c2nc(N3CCOCC3)c3cnn(C4CCN(C(=O)c5cnccc5C)CC4)c3n2)cc1 [Compound 663, 1-methyl-3-[4-(1-{1-[(4-methylpyridin-3-yl)carbonyl]piperidin-4-yl}-4-morpholin-4-yl-1H-pyrazolo[3,4-d]pyrimidin-6-yl)phenyl]urea] | – | 430
29 | 1200 | 428 | – | CN(C)c1ccc(CN2CCC(n3ncc4c(N5CCOCC5)nc(-c5ccc6[nH]ccc6c5)nc43)CC2)cc1 [Example 58] | 1500 | –
30 | < 27 | 490 | – | CCNC(=O)Nc1ccc(-c2nc(N3CCOCC3)c3cnn(C4CCN(C(=O)OC)CC4)c3n2)cc1 [Compound 731, methyl 4-(6-{4-[(ethylcarbamoyl)amino]phenyl}-4-morpholin-4-yl-1H-pyrazolo[3,4-d]pyrimidin-1-yl)piperidine-1-carboxylate] | 70 | –

Row | Structure (SMILES) | IC50 ([1]; Homo sapiens, LNCaP, 72 h) [nM] | IC50 [2] [nM] | IC50 [1] [nM] | IC50 ([3]; Homo sapiens, 72 h) [nM] | IC50 [3] [nM]
31 | NCCC(=O)Nc1ccc(-c2nc(N3CCOCC3)c3cn[nH]c3n2)cc1 [Compound 283] | 1500 | 203 | – | 13000 | –
